Legend:
UOK121 cells = test: Example 10 Test B: cyclodextrin with 2DG-ABT in UOK121 cells, live cells by trypan-blue dye exclusion; assay type: cell-based, human; settings: 10 mM 2DG, 10 mM cyclodextrin, 0.3 μM ABT-263, 25 mM glucose
Method: (§1) Dead and live cells were counted by trypan-blue dye exclusion methods. These experiments were done in triplicate, and the error bars indicate the standard deviation.
(Test A) UOK121 cells were incubated in 10% serum medium with 5 mM or 10 mM α-, β-, and γ-cyclodextrins for 45 minutes. The same medium without any cyclodextrin was also incubated as a control. The cells were harvested and analyzed by Western Blots for the phosphorylation of AKT and ERK1/2 as an indicator of the AKT and ERK1/2 activations. (Test B) 10 mM 2DG was added to a medium of U0K121 cells in the presence of 25 mM glucose, and the medium was incubated for 1.5 hours. To the medium was added 10 mM α-, β-, or γ-cyclodextrin, and the medium was incubated for 30 minutes. Then, 0.3 μM ABT-263 was added thereto, and the medium was further incubated for 2 hours. Separately, a control that includes only α-, β-, or γ-cyclodextrin without 2DG or ABT-263, and another control that includes neither α-, β-, or γ-cyclodextrin, nor 2DG or ABT-263 were prepared. 2.5 hours after adding each cyclodextrin (i.e., 2 hours after adding ABT-263), all the cells were washed with the medium twice, and next day the live cells were counted by trypan-blue dye exclusion assay.

AKT = test: Example 10 Test A: AKT activation in UOK121 cells with α-, β-, γ-cyclodextrins; assay type: cell-based, human; settings: 10% serum, 5 mM or 10 mM cyclodextrin, 45 minutes
Method: We ran 20 μg of proteins per lane for western blots. We ran 8, 10, 12.5 and 15% gels depending on the size of proteins being detected by western blots. When there are two proteins having a similar size, gel is flowed in each protein to make western blot analysis about each protein. The immunoprecipitation was undergone by adding 200 μg of protein from solubilized cells and Protein G Sepharose or Protein A Sepharose (Sigma P3296/P9242) pre-conjugated with immunoprecipitation antibody to a buffer for immunoprecipitation, and slowly rotating the tube containing the sample buffer at 4° C. overnight. The buffer for immunoprecipitation comprises 20 mM Tris Ph 7.5, 1% Triton-X100, 150 mM NaCl, phosphatase inhibitor cocktail (Cell Signaling (#58709S)), and 10% glycerol. […] The precipitate in the solution was separated with 15% SDS-PAGE or 12.5% SDS-PAGE and analyzed by Western blotting.
(Test A) UOK121 cells were incubated in 10% serum medium with 5 mM or 10 mM α-, β-, and γ-cyclodextrins for 45 minutes. […] The cells were harvested and analyzed by Western Blots for the phosphorylation of AKT and ERK1/2 as an indicator of the AKT and ERK1/2 activations. […] 2.5 hours after adding each cyclodextrin (i.e., 2 hours after adding ABT-263), all the cells were washed with the medium twice, and next day the live cells were counted by trypan-blue dye exclusion assay.

Panc-1 cells = test: Example 9: 2DG-bCD-TRAIL in Panc-1 cells, live cells by trypan-blue dye exclusion; assay type: cell-based; settings: TRAIL 10 ng/ml alone
Method: as §1
(A) Panc-1 cells were treated with the standard 2DG-bCD-TRAIL protocol (FIG. 3). The live cells were distinguished from the dead cells by trypan-blue dye exclusion assays, and the live cells were counted, and graphed. The experiments were performed in triplicate and the error bars represent the standard deviations. (B) Western blots of Panc-1 cells left untreated, treated with TRAIL, treated with 2DG-bCD combination, and treated with the combination of 2DG-bCD-TRAIL as depicted in FIG. 3. The cells were harvested at hour 6. The experiments were repeated three times with similar results.

Row | Molecule | enhancement of the combination effect of 2DG-ABT (live cells) (UOK121 cells) | AKT activation (phosphorylation) (AKT) | effect on Panc-1 cells (live cells) (Panc-1 cells)
1 | OC[C@H]1O[C@@H]2O[C@H]3[C@H](O)[C@@H](O)[C@@H](O[C@H]4[C@H](O)[C@@H](O)[C@@H](O[C@H]5[C@H](O)[C@@H](O)[C@@H](O[C@H]6[C@H](O)[C@@H](O)[C@@H](O[C@H]7[C@H](O)[C@@H](O)[C@@H](O[C@H]1[C@H](O)[C@H]2O)O[C@@H]7CO)O[C@@H]6CO)O[C@@H]5CO)O[C@@H]4CO)O[C@@H]3CO [α-cyclodextrin] | little enhanced | – | –
2 | OC[C@H]1O[C@@H]2O[C@H]3[C@H](O)[C@@H](O)[C@@H](O[C@H]4[C@H](O)[C@@H](O)[C@@H](O[C@H]5[C@H](O)[C@@H](O)[C@@H](O[C@H]6[C@H](O)[C@@H](O)[C@@H](O[C@H]7[C@H](O)[C@@H](O)[C@@H](O[C@H]8[C@H](O)[C@@H](O)[C@@H](O[C@H]9[C@H](O)[C@@H](O)[C@@H](O[C@H]1[C@H](O)[C@H]2O)O[C@@H]9CO)O[C@@H]8CO)O[C@@H]7CO)O[C@@H]6CO)O[C@@H]5CO)O[C@@H]4CO)O[C@@H]3CO [γ-cyclodextrin] | little enhanced | – | –
3 | OC[C@H]1O[C@@H]2O[C@H]3[C@H](O)[C@@H](O)[C@@H](O[C@H]4[C@H](O)[C@@H](O)[C@@H](O[C@H]5[C@H](O)[C@@H](O)[C@@H](O[C@H]6[C@H](O)[C@@H](O)[C@@H](O[C@H]7[C@H](O)[C@@H](O)[C@@H](O[C@H]8[C@H](O)[C@@H](O)[C@@H](O[C@H]1[C@H](O)[C@H]2O)O[C@@H]8CO)O[C@@H]7CO)O[C@@H]6CO)O[C@@H]5CO)O[C@@H]4CO)O[C@@H]3CO [β-cyclodextrin] | clearly enhanced | lowered | –
4 | TRAIL: TNF-related apoptosis-inducing ligand (protein, UniProt P50591 1-281, looked up) Tumor necrosis factor ligand …: MAMMEVQGGPSLGQTCVLIVIFTVLLQSLCVAVTYVYFTNELKQMQDKYSKSGIACFLKEDDSYWDPNDEESMNSPCWQVKWQLRQLVRKMILRTSEETISTVQEKQQNISPLVRERGPQRVAAHITGTRGRSNTLSSPNSKNEKALGRKINSWESSRSGHSFLSNLHLRNGELVIHEKGFYYIYSQTYFRFQEEIKENTKNDKQMVQYIYKYTSYPDPILLMKSARNSCWSKDAEYGLYSIYQGGIFELKENDRIFVSVTNEHLIDMDHEASFFGAFLVG | – | – | virtually no effect
